Reference: patent publication US11214561B2, “Histone methyltransferase EZH2 inhibitor, preparation method and pharmaceutical use thereof” (ANCUREALL PHARMACEUTICAL (SHANGHAI) CO., LTD., priority 2017, dated 2022)

Columns and labels:
Pfeiffer (EZH2 A677G) = test: In vitro 50% growth inhibition (GI50), MTT/CCK8, Pfeiffer cells; assay type: cell-based, Human; settings: for GI50: Homo sapiens, Pfeiffer, 240 h, Drug treatment for 10 days; for growth inhibitory activity / GI50 level against Pfeiffer, in words: EZH2 A677G mutant cells Pfeiffer
Source text: (§1) In the present invention, a representative tumor cell line was selected to determine the cell growth inhibition activity of the present compound. Cell culture conditions and methods were in accordance with the requirements for each cell lines. The cells were subcultured in vitro for less than 3 generations each time, and as required, monoclone purification and identification of cell lines could be carried out.
(§2) The cell culture media used were RPMI1640 (Gibco) comprising 5-20% of fetal bovine serum (Gibco), 1% of double-antibiotic and 2 mM of glutamine.
(§3) Suspension culture cells were collected by centrifugation (1700 rpm, 3 minutes), and the supernatant was discarded and the cells were counted. According to each cell growth cycle, different concentrations of cells were prepared (1-10×10^4 cells per ml) and added to 96-well plates (Corning) with 100 μl per well, and then incubated overnight at 37° C., 5% CO2. The next day, the test compound was added to the cultured cells (2 wells in parallel). The final concentration of the solvent was less than 1/1,000. The cells were further cultured for 6 to 12 days and assayed by MTT.
(§4) The compound was stored at a concentration of 10 mM at −20° C. and diluted to two-fold or 10-fold series prior to use.
(§5) For the suspension culture cells, CCK8 was directly added to 10% of the final concentration. The cells were continually incubated for […].
(§6) The experiments were repeated 3 times and a statistical analysis of data was conducted.

Karpas-422 (EZH2 Y641N) = test: In vitro 50% growth inhibition (GI50), MTT/CCK8, Karpas-422 cells; assay type: cell-based; settings: Homo sapiens, KARPAS-422, 144 h; Drug treatment for 6 days
Source text: as §1, §2, §3, §4, §5, §6

SU-DHL-8 (EZH2 WT) = test: In vitro 50% growth inhibition (GI50), MTT/CCK8, SU-DHL-8 cells; assay type: cell-based; settings: Homo sapiens, SU-DHL-8, 144 h; Drug treatment for 6 days
Source text: as §1, §2, §3, §4, §5, §6

GI50 (Karpas-422 (EZH2 Y641N)) | GI50 (SU-DHL-8 (EZH2 WT)) | SMILES | GI50 (Pfeiffer (EZH2 A677G)) | growth inhibitory activity / GI50 level against Pfeiffer, in words (Pfeiffer (EZH2 A677G))
10 to 100 nM | > 1000 nM | C=CC(=O)N1CCC(N(CC)c2cc(-c3ccc(N4CCOCC4)nc3)cc(C(=O)NCc3c(C)cc(C)[nH]c3=O)c2C)C1 (centres unmarked) [Example 52, N-(4,6-dimethyl-2-oxo-1,2-dihydro-pyridin-3-ylmethyl)-3-[(1-acryloyl-pyrrolidin-3-yl)-ethyl-amino]-2-methyl-5-[6-(morpholin-4-yl)-pyridin-3-yl]-benzamide] | 1 to 10 nM | –
10 to 100 nM | > 1000 nM | C=CC(=O)N1CCC(N(CC)c2cc(-c3ccc(N4CCN(C)CC4)nc3)cc(C(=O)NCc3c(C)cc(C)[nH]c3=O)c2C)C1 (centres unmarked) [Example 53, N-(4,6-dimethyl-2-oxo-1,2-dihydro-pyridin-3-ylmethyl)-3-[(1-acryloyl-pyrrolidin-3-yl)-ethyl-amino]-2-methyl-5-[6-(4-methylpiperazin-1-yl)-pyridin-3-yl]-benzamide] | 1 to 10 nM | –
10 to 100 nM | > 1000 nM | C=CC(=O)N1CCC(N(CC)c2cc(-c3ccc(CN4CCOCC4)c(F)c3)cc(C(=O)NCc3c(C)cc(C)[nH]c3=O)c2C)CC1 [Example 62, N-(4,6-dimethyl-2-oxo-1,2-dihydro-pyridin-3-ylmethyl)-5-[(1-acryloyl-piperidin-4-yl)-ethyl-amino]-3′-fluoro-4-methyl-4′-(morpholin-4-ylmethyl)-[1,1′-biphenyl]-3-carboxamide] | 1 to 10 nM | –
10 to 100 nM | > 1000 nM | C=CC(=O)N1CCC(N(CC)c2cc(-c3ccc(CN4CCC(OC)CC4)cc3)cc(C(=O)NCc3c(C)cc(C)[nH]c3=O)c2C)CC1 [Example 65, N-(4,6-dimethyl-2-oxo-1,2-dihydro-pyridin-3-ylmethyl)-5-[(1-acryloyl-piperidin-4-yl)-ethyl-amino]-4-methyl-4′-(4-methoxypiperidin-1-ylmethyl)-[1,1′-biphenyl]-3-carboxamide] | < 1 nM | subnanomolar level
10 to 100 nM | > 1000 nM | C=CC(=O)N1CCC(N(CC)c2cc(-c3cccc(CN4CCOCC4)c3)cc(C(=O)NCc3c(C)cc(C)[nH]c3=O)c2C)CC1 [Example 70, N-(4,6-dimethyl-2-oxo-1,2-dihydro-pyridin-3-ylmethyl)-5-[(1-acryloyl-piperidin-4-yl)-ethyl-amino]-4-methyl-3′-(morpholin-4-ylmethyl)-[1,1′-biphenyl]-3-carboxamide] | 1 to 10 nM | –
10 to 100 nM | > 1000 nM | C=CC(=O)N1CCC(N(CC)c2cc(-c3ccc(CN4CCOCC4)c(Cl)c3)cc(C(=O)NCc3c(C)cc(C)[nH]c3=O)c2C)CC1 [Example 71, N-(4,6-dimethyl-2-oxo-1,2-dihydro-pyridin-3-ylmethyl)-5-[(1-acryloyl-piperidin-4-yl)-ethyl-amino]-3′-chloro-4-methyl-4′-(morpholin-4-ylmethyl)-[1,1′-biphenyl]-3-carboxamide] | 1 to 10 nM | –
10 to 100 nM | > 1000 nM | C=CC(=O)N1CCC(N(CC)c2cc(-c3cccc(CN4CCCN(C)CC4)c3)cc(C(=O)NCc3c(C)cc(C)[nH]c3=O)c2C)CC1 [Example 75, N-(4,6-dimethyl-2-oxo-1,2-dihydro-pyridin-3-ylmethyl)-5-[(1-acryloyl-piperidin-4-yl)-ethyl-amino]-4-methyl-3′-(4-methylhomopiperazin-1-ylmethyl)-[1,1′-biphenyl]-3-carboxamide] | 1 to 10 nM | –
10 to 100 nM | > 1000 nM | C=CC(=O)N1CCC(N(CC)c2cc(-c3ccc(CN4CC(OC)C4)cc3)cc(C(=O)NCc3c(C)cc(C)[nH]c3=O)c2C)CC1 [Example 76, N-(4,6-dimethyl-2-oxo-1,2-dihydro-pyridin-3-ylmethyl)-5-[(1-acryloyl-piperidin-4-yl)-ethyl-amino]-4-methyl-4′-(3-methoxy-1-azetidinylmethyl)-[1,1′-biphenyl]-3-carboxamide] | 1 to 10 nM | –
10 to 100 nM | > 1000 nM | C=CC(=O)N1CCC(N(CC)c2cc(-c3ccc(CN4CCC(OCCOC)CC4)cc3)cc(C(=O)NCc3c(C)cc(C)[nH]c3=O)c2C)CC1 [Example 77, N-(4,6-dimethyl-2-oxo-1,2-dihydro-pyridin-3-ylmethyl)-5-[(1-acryloyl-piperidin-4-yl)-ethyl-amino]-4-methyl-4′-[4-(2-methoxyethyloxy)-piperidin-1-ylmethyl]-[1,1′-biphenyl]-3-carboxamide] | < 1 nM | subnanomolar level
10 to 100 nM | > 1000 nM | C=CC(=O)N1CCC(N(CC)c2cc(-c3ccc(CN4CCC(N5CCOCC5)CC4)cc3)cc(C(=O)NCc3c(C)cc(C)[nH]c3=O)c2C)CC1 [Example 81] | 1 to 10 nM | –
10 to 100 nM | > 1000 nM | C=CC(=O)N1CCC(N(CC)c2cc(-c3ccc(CN4CCC5(CCCO5)CC4)cc3)cc(C(=O)NCc3c(C)cc(C)[nH]c3=O)c2C)CC1 [Example 87, N-(4,6-dimethyl-2-oxo-1,2-dihydro-pyridin-3-ylmethyl)-5-[(1-acryloyl-piperidin-4-yl)-ethyl-amino]-4-methyl-4′-(1-oxa-8-aza-spiro[4.5]decan-8-ylmethyl)-[1,1′-biphenyl]-3-carboxamide] | < 1 nM | subnanomolar level
10 to 100 nM | > 1000 nM | C=CC(=O)N1CCC(N(CC)c2cc(-c3ccc(CN4CCC(OCC)CC4)cc3)cc(C(=O)NCc3c(C)cc(C)[nH]c3=O)c2C)CC1 [Example 88, N-(4,6-dimethyl-2-oxo-1,2-dihydro-pyridin-3-ylmethyl)-5-[(1-acryloyl-piperidin-4-yl)-ethyl-amino]-4-methyl-4′-(4-ethoxypiperidin-1-ylmethyl)-[1,1′-biphenyl]-3-carboxamide] | < 1 nM | subnanomolar level
10 to 100 nM | > 1000 nM | C=CC(=O)N1CCC(N(CC)c2cc(-c3ccc(CN4CCN(C5CCOCC5)CC4)cc3)cc(C(=O)NCc3c(C)cc(C)[nH]c3=O)c2C)CC1 [Example 89, N-(4,6-dimethyl-2-oxo-1,2-dihydro-pyridin-3-ylmethyl)-5-[(1-acryloyl-piperidin-4-yl)-ethyl-amino]-4-methyl-4′-[4-(tetrahydropyran-4-yl)-piperazin-1-ylmethyl]-[1,1′-biphenyl]-3-carboxamide] | < 1 nM | subnanomolar level
